Consider 27 targets from the supplement of paper PMC12463676, “Small-molecule dissolution of stress granules by redox modulation benefits ALS models” (Nature Chemical Biology, 2025).

Compound in one experiment: O=[As]([O-])(O)O.[K+] [potassium arsenate]
Nature of the experiment: thermal stability z-score vs DMSO; higher = more thermally stabilized by treatment. The settings on record: HeLa; arsenate concentration 1 mM. Here is the method: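 Cellular thermal proteome profiling in HeLa cells treated with 1 mM arsenate for 1 h (DMSO pretreatment), heated to ten temperatures (37-66.3 °C). Soluble protein was quantified by TMT mass spectrometry relative to DMSO controls; the thermal stability score was transformed to a z-score; mean of n = 3 experiments.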

Compound in a further experiment: NC(=O)CCCCC1CCSS1 [lipoamide]
The experiment is described as above. The conditions noted are these: HeLa, lipoamide concentration 100 µM. How it is done:
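Cellular thermal proteome profiling in HeLa cells. Cells were treated with 100 µM lipoamide for 1 h, with or without 1 mM arsenate for a further 1 h, then heated to ten temperatures (37-66.3 °C), and soluble protein was quantified by TMT mass spectrometry relative to 0.1% DMSO controls. The thermal stability score (sum of log2 fold changes minus the abundance score) was transformed to a z-score; mean of n = 3 experiments.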

Setting [1] is: arsenate co-treatment: 1 mM arsenate 1 h.
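Note: each temperature applied for 3 min, abundance score taken as mean log2 fold change at the two lowest temperatures, z-score obtained by mean subtraction and division by SD.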

Chain of UniProt Q9UJY4 (Q9UJY4 whole entry): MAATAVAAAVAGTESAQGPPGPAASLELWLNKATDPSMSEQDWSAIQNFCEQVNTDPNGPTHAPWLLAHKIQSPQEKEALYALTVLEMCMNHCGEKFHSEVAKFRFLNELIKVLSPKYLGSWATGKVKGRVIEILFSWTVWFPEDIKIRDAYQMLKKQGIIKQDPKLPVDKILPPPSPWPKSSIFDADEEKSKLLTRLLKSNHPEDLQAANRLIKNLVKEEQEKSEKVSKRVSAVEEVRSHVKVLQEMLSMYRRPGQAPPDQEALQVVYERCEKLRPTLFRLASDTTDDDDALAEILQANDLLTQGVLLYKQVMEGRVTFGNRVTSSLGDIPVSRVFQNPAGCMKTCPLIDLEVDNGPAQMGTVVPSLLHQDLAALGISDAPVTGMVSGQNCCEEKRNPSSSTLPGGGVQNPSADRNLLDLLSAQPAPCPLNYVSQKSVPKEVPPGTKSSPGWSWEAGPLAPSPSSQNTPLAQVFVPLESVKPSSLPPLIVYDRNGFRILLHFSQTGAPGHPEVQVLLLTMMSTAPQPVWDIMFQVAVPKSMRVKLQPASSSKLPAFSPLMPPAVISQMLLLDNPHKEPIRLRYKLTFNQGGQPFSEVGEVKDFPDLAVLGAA
Chain of UniProt Q969S9 (Q969S9 whole entry): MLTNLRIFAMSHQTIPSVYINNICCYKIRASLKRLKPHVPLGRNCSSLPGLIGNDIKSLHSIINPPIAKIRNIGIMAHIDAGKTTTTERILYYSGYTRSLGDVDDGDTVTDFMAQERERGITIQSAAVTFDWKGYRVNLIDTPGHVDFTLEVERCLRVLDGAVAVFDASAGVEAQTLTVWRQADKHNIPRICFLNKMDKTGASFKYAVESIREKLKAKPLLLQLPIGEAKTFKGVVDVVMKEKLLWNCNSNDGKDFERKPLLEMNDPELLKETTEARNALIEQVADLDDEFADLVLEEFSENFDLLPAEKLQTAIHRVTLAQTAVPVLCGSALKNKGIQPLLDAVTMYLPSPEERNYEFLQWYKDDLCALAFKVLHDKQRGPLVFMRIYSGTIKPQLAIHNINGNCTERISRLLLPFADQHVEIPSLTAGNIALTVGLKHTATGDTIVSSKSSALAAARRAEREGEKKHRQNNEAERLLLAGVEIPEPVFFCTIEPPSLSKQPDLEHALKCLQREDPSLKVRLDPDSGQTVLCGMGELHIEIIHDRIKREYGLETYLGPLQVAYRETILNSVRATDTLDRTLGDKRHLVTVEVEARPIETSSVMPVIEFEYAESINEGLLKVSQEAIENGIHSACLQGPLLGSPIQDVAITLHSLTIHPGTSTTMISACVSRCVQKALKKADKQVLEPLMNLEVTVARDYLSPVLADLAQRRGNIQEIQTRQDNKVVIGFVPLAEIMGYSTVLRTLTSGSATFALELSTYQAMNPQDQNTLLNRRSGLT
Chain of UniProt Q06210 (Q06210 whole entry): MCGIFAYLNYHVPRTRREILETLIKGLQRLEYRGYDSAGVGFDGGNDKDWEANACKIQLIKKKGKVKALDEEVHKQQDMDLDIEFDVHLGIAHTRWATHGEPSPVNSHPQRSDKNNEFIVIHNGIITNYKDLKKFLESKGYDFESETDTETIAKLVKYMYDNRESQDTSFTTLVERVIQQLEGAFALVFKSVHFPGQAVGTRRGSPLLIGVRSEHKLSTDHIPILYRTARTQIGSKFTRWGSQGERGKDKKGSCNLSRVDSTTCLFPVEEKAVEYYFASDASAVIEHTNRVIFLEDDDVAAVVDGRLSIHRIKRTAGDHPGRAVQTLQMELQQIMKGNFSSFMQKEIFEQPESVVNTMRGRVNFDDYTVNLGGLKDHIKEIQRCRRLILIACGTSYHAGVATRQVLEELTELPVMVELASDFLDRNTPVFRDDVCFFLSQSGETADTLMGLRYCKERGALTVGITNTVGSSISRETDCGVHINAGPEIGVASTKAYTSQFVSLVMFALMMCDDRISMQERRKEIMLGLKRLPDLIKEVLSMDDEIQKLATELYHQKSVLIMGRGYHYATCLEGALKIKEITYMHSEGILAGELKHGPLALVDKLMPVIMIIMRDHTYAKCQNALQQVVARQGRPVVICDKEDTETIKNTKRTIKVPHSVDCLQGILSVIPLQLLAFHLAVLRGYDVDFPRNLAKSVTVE
Chain of UniProt Q9Y2X7 (Q9Y2X7 whole entry): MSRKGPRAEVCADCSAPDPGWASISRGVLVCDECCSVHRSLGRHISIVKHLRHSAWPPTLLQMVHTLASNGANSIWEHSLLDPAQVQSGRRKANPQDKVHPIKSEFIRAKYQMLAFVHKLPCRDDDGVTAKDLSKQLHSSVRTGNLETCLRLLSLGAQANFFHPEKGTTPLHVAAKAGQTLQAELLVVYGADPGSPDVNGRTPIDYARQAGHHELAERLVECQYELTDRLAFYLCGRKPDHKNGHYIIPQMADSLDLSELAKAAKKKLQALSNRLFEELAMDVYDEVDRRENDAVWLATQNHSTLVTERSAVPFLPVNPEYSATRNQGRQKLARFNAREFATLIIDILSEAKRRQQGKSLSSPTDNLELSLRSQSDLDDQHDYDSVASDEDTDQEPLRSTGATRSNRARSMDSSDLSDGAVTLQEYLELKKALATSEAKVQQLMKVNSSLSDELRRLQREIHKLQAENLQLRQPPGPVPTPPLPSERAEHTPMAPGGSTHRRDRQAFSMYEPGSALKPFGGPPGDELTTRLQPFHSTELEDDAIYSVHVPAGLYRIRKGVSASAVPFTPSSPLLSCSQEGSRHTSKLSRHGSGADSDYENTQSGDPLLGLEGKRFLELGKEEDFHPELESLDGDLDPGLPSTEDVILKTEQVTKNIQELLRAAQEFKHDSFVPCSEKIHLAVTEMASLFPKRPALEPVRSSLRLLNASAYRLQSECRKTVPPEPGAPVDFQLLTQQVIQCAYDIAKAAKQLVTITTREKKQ
Chain of UniProt Q8N2G8 (Q8N2G8 whole entry): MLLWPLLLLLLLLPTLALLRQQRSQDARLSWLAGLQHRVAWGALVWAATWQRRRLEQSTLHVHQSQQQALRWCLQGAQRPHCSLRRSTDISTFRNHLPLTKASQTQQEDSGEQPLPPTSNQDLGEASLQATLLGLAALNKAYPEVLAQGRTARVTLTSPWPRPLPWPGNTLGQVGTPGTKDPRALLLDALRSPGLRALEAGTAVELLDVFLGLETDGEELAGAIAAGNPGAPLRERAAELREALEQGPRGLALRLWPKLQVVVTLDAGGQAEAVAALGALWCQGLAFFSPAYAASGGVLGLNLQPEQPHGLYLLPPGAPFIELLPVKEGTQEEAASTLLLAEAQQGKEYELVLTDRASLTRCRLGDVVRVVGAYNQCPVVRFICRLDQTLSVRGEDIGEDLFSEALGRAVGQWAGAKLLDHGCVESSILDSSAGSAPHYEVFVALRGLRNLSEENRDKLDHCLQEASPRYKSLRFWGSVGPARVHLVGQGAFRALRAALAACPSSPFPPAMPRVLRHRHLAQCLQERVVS
Chain of UniProt Q8TF64 (Q8TF64 whole entry): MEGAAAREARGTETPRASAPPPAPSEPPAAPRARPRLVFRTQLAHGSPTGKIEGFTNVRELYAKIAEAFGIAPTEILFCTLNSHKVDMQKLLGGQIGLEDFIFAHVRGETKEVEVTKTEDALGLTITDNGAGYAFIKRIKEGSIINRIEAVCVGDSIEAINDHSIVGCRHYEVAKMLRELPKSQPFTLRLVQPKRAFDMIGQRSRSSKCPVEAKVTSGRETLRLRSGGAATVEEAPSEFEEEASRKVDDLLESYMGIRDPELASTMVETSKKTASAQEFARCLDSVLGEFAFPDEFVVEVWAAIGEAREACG
Chain of UniProt Q9H3K2 (Q9H3K2 whole entry): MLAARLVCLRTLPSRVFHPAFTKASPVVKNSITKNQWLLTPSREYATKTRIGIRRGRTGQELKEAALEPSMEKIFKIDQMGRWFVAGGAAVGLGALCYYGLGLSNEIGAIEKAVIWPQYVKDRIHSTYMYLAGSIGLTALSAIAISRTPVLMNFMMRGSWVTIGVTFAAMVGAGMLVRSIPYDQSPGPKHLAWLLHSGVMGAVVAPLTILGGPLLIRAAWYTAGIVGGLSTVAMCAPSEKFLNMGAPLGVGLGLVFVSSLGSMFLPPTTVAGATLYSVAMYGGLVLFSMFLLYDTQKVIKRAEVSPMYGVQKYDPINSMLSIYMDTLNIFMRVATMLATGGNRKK
Chain of UniProt O95749 (O95749 whole entry): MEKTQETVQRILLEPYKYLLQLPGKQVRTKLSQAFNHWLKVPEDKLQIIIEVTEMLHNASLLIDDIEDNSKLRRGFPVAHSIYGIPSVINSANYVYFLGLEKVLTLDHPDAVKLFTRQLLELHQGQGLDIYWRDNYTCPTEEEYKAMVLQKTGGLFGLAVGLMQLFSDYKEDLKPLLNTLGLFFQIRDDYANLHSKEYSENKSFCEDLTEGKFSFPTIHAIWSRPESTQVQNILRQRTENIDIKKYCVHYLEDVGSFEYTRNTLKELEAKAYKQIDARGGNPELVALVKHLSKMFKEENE
Chain of UniProt Q9BRT9 (Q9BRT9 whole entry): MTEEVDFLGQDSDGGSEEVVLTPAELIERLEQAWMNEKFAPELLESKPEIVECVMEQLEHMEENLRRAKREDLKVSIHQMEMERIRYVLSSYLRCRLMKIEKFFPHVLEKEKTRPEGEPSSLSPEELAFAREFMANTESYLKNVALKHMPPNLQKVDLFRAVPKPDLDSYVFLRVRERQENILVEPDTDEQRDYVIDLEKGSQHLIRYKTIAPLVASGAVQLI
Chain of UniProt O14908 (O14908 whole entry): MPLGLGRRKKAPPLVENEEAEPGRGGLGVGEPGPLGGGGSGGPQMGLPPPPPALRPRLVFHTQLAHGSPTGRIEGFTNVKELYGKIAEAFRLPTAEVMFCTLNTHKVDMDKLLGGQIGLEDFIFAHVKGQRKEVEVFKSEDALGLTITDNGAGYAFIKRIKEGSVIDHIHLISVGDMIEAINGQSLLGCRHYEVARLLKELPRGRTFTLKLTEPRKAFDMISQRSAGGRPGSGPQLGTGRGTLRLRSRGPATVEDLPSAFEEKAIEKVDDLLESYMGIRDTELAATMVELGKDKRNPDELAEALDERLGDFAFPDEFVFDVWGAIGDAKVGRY

With GFER (UniProt P55789), the thermal stability z-score with potassium arsenate stood at 0.816; with lipoamide (setting [1]) it was 0.239; in the experiment with lipoamide (arsenate co-treatment: none) it was 0.231.
Turning to GFM1 (UniProt Q96RP9), the thermal stability z-score with potassium arsenate was -1.15; with lipoamide (setting [1]), -0.469; with lipoamide (arsenate co-treatment: none), 0.0798.
On to GFM2 (UniProt Q969S9), for which the thermal stability z-score in the experiment with potassium arsenate was determined as 0.226; in the experiment with lipoamide (setting [1]), 0.216; with lipoamide (arsenate co-treatment: none), 0.105.
Turning to GFPT1 (UniProt Q06210), the results for the thermal stability z-score with potassium arsenate, with lipoamide (setting [1]) and with lipoamide (arsenate co-treatment: none) were -0.331, -0.127 and -0.196, respectively.
As for GFPT2 (UniProt O94808), the thermal stability z-score with potassium arsenate was -0.593; with lipoamide (setting [1]) it was 0.344; in the experiment with lipoamide (arsenate co-treatment: none) it was -0.0258.
Consider GGA1 (UniProt Q9UJY5), for which the results for the thermal stability z-score with potassium arsenate, in the experiment with lipoamide (setting [1]) and with lipoamide (arsenate co-treatment: none) were 0.27, -0.523 and -0.393, respectively.
Consider GGA2 (UniProt Q9UJY4), for which the thermal stability z-score is -0.335 in the experiment with potassium arsenate, -0.076 with lipoamide (setting [1]) and -0.0378 with lipoamide (arsenate co-treatment: none).
On to GGA3 (UniProt Q9NZ52), for which the results for the thermal stability z-score in the experiment with potassium arsenate, in the experiment with lipoamide (setting [1]) and in the experiment with lipoamide (arsenate co-treatment: none) were -0.298, -0.3 and 0.0568, respectively.
Consider GGCT (UniProt O75223), for which the thermal stability z-score was 1.11 with potassium arsenate, 1.7 in the experiment with lipoamide (setting [1]) and 1.02 with lipoamide (arsenate co-treatment: none).
Taken in the same sequence, the figures for GGCX (UniProt P38435) were -0.0562, -0.482 and -0.632.
Taken in the same sequence, the figures for GGH (UniProt Q92820) were 0.317, 0.661 and 0.64.
For the target GGNBP2 (UniProt Q9H3C7), the thermal stability z-score was -1.84 in the experiment with potassium arsenate, 0.141 in the experiment with lipoamide (setting [1]) and 0.168 with lipoamide (arsenate co-treatment: none).
Consider GGPS1 (UniProt O95749), for which the thermal stability z-score was -0.212 with potassium arsenate, 0.498 with lipoamide (setting [1]) and 0.521 with lipoamide (arsenate co-treatment: none).
As to GHDC (UniProt Q8N2G8), the thermal stability z-score is 0.229 with potassium arsenate, -0.848 in the experiment with lipoamide (setting [1]) and 0.229 with lipoamide (arsenate co-treatment: none).
Take GHITM (UniProt Q9H3K2): the figures for the thermal stability z-score with potassium arsenate, with lipoamide (setting [1]) and with lipoamide (arsenate co-treatment: none) were -0.0999, -0.161 and -0.193, respectively.
Take GID8 (UniProt Q9NWU2): the thermal stability z-score in the experiment with potassium arsenate was -0.0145; in the experiment with lipoamide (setting [1]) it was 0.00199; with lipoamide (arsenate co-treatment: none), 0.0715.
Turning to GIGYF1 (UniProt O75420), the thermal stability z-score with potassium arsenate worked out at 0.0812; in the experiment with lipoamide (setting [1]), 0.0328; with lipoamide (arsenate co-treatment: none), 0.0305.
As for GIGYF2 (UniProt Q6Y7W6), the thermal stability z-score with potassium arsenate was 0.0976; in the experiment with lipoamide (setting [1]), -0.406; in the experiment with lipoamide (arsenate co-treatment: none), -0.109.
As for GINS1 (UniProt Q14691), the thermal stability z-score was -0.404 in the experiment with potassium arsenate, -0.512 in the experiment with lipoamide (setting [1]) and -0.399 with lipoamide (arsenate co-treatment: none).
On to GINS2 (UniProt Q9Y248), for which the figures for the thermal stability z-score with potassium arsenate, with lipoamide (setting [1]) and with lipoamide (arsenate co-treatment: none) were 0.0793, -0.0167 and 0.00771, respectively.
For the target GINS3 (UniProt Q9BRX5), the figures for the thermal stability z-score in the experiment with potassium arsenate, with lipoamide (setting [1]) and with lipoamide (arsenate co-treatment: none) were -0.288, 0.275 and -0.19, respectively.
As to GINS4 (UniProt Q9BRT9), the thermal stability z-score with potassium arsenate is -0.614; with lipoamide (setting [1]), 0.2; with lipoamide (arsenate co-treatment: none), -0.173.
Turning to GIPC1 (UniProt O14908), the thermal stability z-score was -0.251 in the experiment with potassium arsenate, -0.301 with lipoamide (setting [1]) and -0.267 with lipoamide (arsenate co-treatment: none).
In the same order, the values of GIPC3 (UniProt Q8TF64) are -0.214, -0.481 and -0.0967.
On to GIT1 (UniProt Q9Y2X7), for which the thermal stability z-score in the experiment with potassium arsenate was -0.368; with lipoamide (setting [1]), 0.346; in the experiment with lipoamide (arsenate co-treatment: none), -0.311.
As to GIT2 (UniProt Q14161), the thermal stability z-score stood at 1 with potassium arsenate, 1.13 with lipoamide (setting [1]) and 1.87 in the experiment with lipoamide (arsenate co-treatment: none).
Regarding GK (UniProt P32189), the thermal stability z-score came out at 0.46 with potassium arsenate, 0.371 with lipoamide (setting [1]) and 0.195 with lipoamide (arsenate co-treatment: none).
